Data from US11896678B2, “Compositions and methods for treatment of peroxisome proliferator-activated receptor gamma (PPARG) activated cancer” (THE BROAD INSTITUTE, INC., priority 2017, dated 2024).
Ends that are not written are not given here.

Assays:
PPARG = biological target: T1, PPARG (Homo sapiens, UniProt P37231); assay: RT112/84 FABP4-NLucP reporter gene assay, unstimulated; type: cell-based
T1 construct: endogenous in cells; host or cells: RT112/84 bladder cancer cells (FABP4-NLucP knock-in clone)
T1 sequence (P37231 1-477 isoform P37231-2): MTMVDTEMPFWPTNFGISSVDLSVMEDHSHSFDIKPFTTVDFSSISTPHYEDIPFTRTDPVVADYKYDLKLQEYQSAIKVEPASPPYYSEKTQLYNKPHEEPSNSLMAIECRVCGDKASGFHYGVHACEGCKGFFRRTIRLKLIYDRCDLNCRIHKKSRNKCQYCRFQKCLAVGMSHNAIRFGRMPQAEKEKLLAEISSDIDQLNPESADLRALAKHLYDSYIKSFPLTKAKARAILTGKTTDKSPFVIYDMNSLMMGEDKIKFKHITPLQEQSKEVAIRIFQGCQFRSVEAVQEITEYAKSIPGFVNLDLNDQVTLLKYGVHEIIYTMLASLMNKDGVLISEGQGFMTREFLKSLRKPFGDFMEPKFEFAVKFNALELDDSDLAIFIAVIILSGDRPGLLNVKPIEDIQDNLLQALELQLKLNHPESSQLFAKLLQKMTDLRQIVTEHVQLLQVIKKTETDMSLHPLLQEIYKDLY
Text: Next, a PPARG reporter cell line was engineered to enable higher throughput assays to evaluate PPARG transactivation. Briefly, a destabilized NanoLuc luciferase reporter gene was inserted into the 3′-UTR of the FABP4 gene in the RT112/84 bladder cancer cell line using CRISPR/Cas9 mediated homology-directed repair (FIG. 4A).
RT112-FABP4-NLucP Reporter Gene Assay: Reporter cell line was generated by engineering NanoLuc gene into the 3′ UTR of FABP4 in RT112/84 cells using CRISPR/Cas9 guided genome engineering. Single cell clones were generated and the clone with the widest dynamic range selected for use. Assays were performed by seeding 384-well plates with ˜10,000 cells per well in MEMalpha containing 10% FBS and dosing compounds at indicated concentration using HP D300 digital dispenser (HP/Tecan). 18-24 hours after dosing with compound, cells were assayed using NanoGlo Luciferase Assay Reagent (Promega Madison, WI) and plates were read using EnVision Multilabel Reader (PerkinElmer Waltham, MA).

[1] = biological target: T2, PPARG ligand-binding domain - TRAP220/MED1 coactivator peptide (Homo sapiens, UniProt P37231); assay: TR-FRET coactivator assay, TRAP220/MED1 peptide; type: biochemical
T2 construct: purchased ThermoFisher Scientific
T2 sequence (P37231 238-503 limits assumed): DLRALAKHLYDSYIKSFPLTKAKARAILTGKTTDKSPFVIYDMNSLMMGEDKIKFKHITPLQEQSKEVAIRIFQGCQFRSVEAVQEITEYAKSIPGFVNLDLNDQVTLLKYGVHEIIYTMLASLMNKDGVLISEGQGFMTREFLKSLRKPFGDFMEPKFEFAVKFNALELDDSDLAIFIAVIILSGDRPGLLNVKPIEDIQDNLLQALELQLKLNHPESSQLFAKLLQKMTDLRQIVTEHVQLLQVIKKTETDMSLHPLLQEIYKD

[2] = biological target: T3, PPARG ligand-binding domain (Homo sapiens, UniProt P37231); assay: TR-FRET PPARG competition binding assay; settings: maximal concentration tested 10 uM
T3 sequence (P37231 238-503 limits assumed): T2 sequence (P37231 238-503 limits assumed)
Procedure: To evaluate binding affinity, a PPARG competition binding assay that measures displacement of a fluorescent PPARG ligand from the PPARG ligand-binding domain was used.
Biochemical Assays: The LanthaScreen TR-FRET PPAR gamma Competitive Binding Assay and LanthaScreen TR-FRET PPAR gamma Coactivator Assay were obtained from ThermoFisher Scientific. Assays were performed according to the manufacturer's protocol. In order to assay inverse-agonism, the Coactivator assay was modified by the use of fluorescently labeled co-repressor peptides (NCoR1 ID2 peptide, SMRT ID2 peptide) to convert from agonist mode (coactivator recruitment) into inverse-agonist mode (corepressor recruitment).

UM-UC-9 cells [3] = assay: Direct cell counting dose-response proliferation assay; type: cell-based, human
Procedure: To determine whether PPARG modulators affect the proliferation and/or viability of PPARG-activated bladder cancer cell lines, a direct cell counting-based assay was performed. This assay likely avoids potential artifacts associated with the use of an ATP content-based assay, given that PPAR modulators are known to regulate cellular metabolic activity. […] These IC50 values align well with the calculated IC50s from both the cell-based reporter gene assay (FIG. 8A) and the biochemical corepressor assay (FIG. 8D).
(§1) Proliferation Assays: To enable cell-counting experiments, cell lines were transduced with a lentiviral vector encoding nuclear-targeted GFP, TagGFP2-H2B (Evrogen), and stable pools generated following selection for puromycin resistance. Cell lines were maintained for at least 7 days following selection prior to expansion and seeding into 96- or 384-well plates for further analysis. For kinetic proliferation assays, 96-well plates (n 1% 4 per condition) were imaged and counted every two hours using IncuCyte Zoom (Essen BioScience). Media and compounds were replaced approximately every 3-4 days. For endpoint assays to measure dose-response, cells were plated in 384-well plates, dosed with compound, and upon reaching approximately 70% to 90% confluence in control wells, cells were either counted using fluorescence imaging (Incu-Cyte Zoom) or incubated with CyQuant (Thermo Fisher) at the indicated time and plates were read with a fluorescent plate reader.

[4] = test system: PPARG-activated bladder cancer cell lines; assay: Proliferation assays in PPARG-activated bladder cancer cell lines; type: cell-based, human; settings: 100 nM-500 nM
Procedure: A panel of bladder cancer cell lines with PPARG modulators in colony formation assays was then tested (FIG. 10), kinetic proliferation assays (IncuCyte Zoom; Essen Bioscience) using cell lines treated with a single concentration of compound (100 nM-500 nM), and end-point dose-response assays (CellTiter Glo or CyQuant).
This assay was expanded to include an additional 8 representative bladder cancer cell lines, including cell lines with PPARG amplification, RXRA p.S427F mutation, activated gene signature, and control cell lines with low level expression of PPARG and target genes. […] Representative data for the UM-UC-9 cell line are shown in FIG. 6B, and is tabulated for the tested bladder cancer cell lines in Table 1. […] This significant (P<0.01) preferential sensitivity to PPARG inverse-agonists, but not antagonists, is maintained across all of the PPARG-activated cell lines in the panel, including the RXRA p.S427F cell line, HT-1197 (41), the PPARG-amplified cell lines, 5637 and UM-UC-9, and the PPARG activation gene signature cell lines Cal29, UM-UC-1, and RT112/84 (FIG. 12). […] Similar results were obtained with these cell lines in parallel studies using clonogenic assays to quantify colony-forming ability (FIG. 10).
as §1

[5] = test system: PPARG-activated pancreatic and colorectal cancer cell lines; assay: Kinetic proliferation assay in pancreatic and colorectal cancer cell lines; type: cell-based; settings: 500 nM
Text: To enable cell-counting, cell lines were transduced with a lentiviral vector encoding nuclear-targeted GFP (TagGFP2-H2B), and stable pools generated following selection for puromycin-resistance. Cell lines were maintained for at least 7 days following selection prior to expansion and seeding into 96-well plates for further analysis. For kinetic proliferation assays, 96-well plates were imaged in phase-contrast and green fluorescence mode every two hours using IncuCyte Zoom (Essen BioScience, Ann Arbor MI). Using IncuCyte software, the number of fluorescent nuclei were counted to monitor quantitative changes in cell number over time. Media and compounds were replaced approximately every 3-4 days.
DMSO treatment was also included as a vehicle control.

[6] = test system: PPARG target gene expression in UM-UC-9 cells; assay: RNA sequencing of UM-UC-9 cells after 7 days dosing; type: cell-based, human; settings: 500 nmol/L
Procedure: Next, the effects of long-term dosing on the transcriptional profile of the PPARG-amplified cell line, UMUC-9, were evaluated. Briefly, UM-UC-9 cells were treated for 7 days with various PPARG modulators dosed at 500 nmol/L and gene expression was analyzed using RNA sequencing. […] Genes that were more abundantly expressed upon treatment with inverse-agonists included ALPP, SPINK4, and ALDH1A3 (FIG. 5). […] In summary, the in vitro pharmacological properties of known PPARG modulators have been characterized and two distinct chemotypes with bona-fide inverse-agonist activity in PPARG-activated bladder cancer cells were identified.
RNAseq analysis: RNA was isolated using RNEasy (Qiagen) and an RNAseq library was prepared using NEBNext Ultra Directional RNA Library Prep Kit for Illumina and NEBNext Multiplex Oligos for Illumina (New England BioLabs). RNAseq sequencing was performed using an Illumina MiSeq instrument according to the manufacturers protocol. Sequence data was analyzed using Firehose (Broad Institute, Cambridge MA) to map transcripts and calculate RPKM (SW780 cDNA expression) or TPM (UM-UC-9).
For UM-UC-9 RNAseq experiment, the resulting reads were used to calculate transcript abundance in units of TPM (transcripts per million) (18), which were then adjusted using TMM normalization (19) for comparison. […]

[7] = biological target: T4, PPARG ligand-binding domain - SMRT/NCOR2 corepressor peptide (Homo sapiens, UniProt P37231); assay: TR-FRET corepressor assay, SMRT/NCOR2 peptide; type: biochemical
T4 construct: purchased ThermoFisher Scientific
T4 sequence (P37231 238-503 limits assumed): T2 sequence (P37231 238-503 limits assumed)
Procedure: (§2) To evaluate inverse-agonism, a TR-FRET PPARG co-repressor assay (ThermoFisher) that measures recruitment of a fluorescent NCOR1 or NCOR2 corepressor peptide to the PPARG ligand-binding domain was used (ThermoFisher).
To determine effects on interactions between PPARG and coregulators, PPARG modulators were tested in two TR-FRET biochemical interaction assays for agonism and inverse-agonism. Agonism was quantitated using a coactivator assay, which measured the interaction between the PPARG ligand-binding domain and a fluorescently-labeled peptide from TRAP220/MED1. […] To evaluate inverse-agonism biochemically, ligand-dependent interactions were measured between PPARG ligand-binding domain and corepressor peptides from NCoR/NCOR1 and SMRT/NCOR2.

5637 cells = assay: Proliferation assay in PPARG-amplified 5637 cells; type: cell-based; settings: Homo sapiens; data not shown
Procedure: To determine if treatment of PPARG-activated bladder cancer cell lines with PPARG modulators impacted viability, a variety of compounds were tested in proliferation assays.

[8] = biological target: T5, PPARG ligand-binding domain - NCoR/NCOR1 corepressor peptide (Homo sapiens, UniProt P37231); assay: TR-FRET corepressor assay, NCoR/NCOR1 peptide; type: biochemical; settings: data not shown
T5 construct: purchased ThermoFisher Scientific
T5 sequence (P37231 238-503 limits assumed): T2 sequence (P37231 238-503 limits assumed)
Procedure: as §2
In addition to the PPARG-NCOR2 interaction assay described above, interactions between PPARG and a peptide from the corepressor NCOR1 were measured.

UM-UC-9 cells [9] = assay: Kinetic proliferation assay (IncuCyte), percent of DMSO control; type: cell-based, human; settings: 100 nmol/L; DMSO control at 50% confluency
Text: This assay was expanded to include an additional 8 representative bladder cancer cell lines, including cell lines with PPARG amplification, RXRA p.S427F mutation, activated gene signature, and control cell lines with low level expression of PPARG and target genes. […] Representative data for the UM-UC-9 cell line are shown in FIG. 6B, and is tabulated for the tested bladder cancer cell lines in Table 1. […] Similar results were obtained with these cell lines in parallel studies using clonogenic assays to quantify colony-forming ability (FIG. 10).
as §1, with “Cell lines were maintained for at least 7 days following selection prior to expansion and seeding into 96- or 384-well plates for further analysis.” left out, “Media and compounds were replaced approximately every 3-4 days.” left out

bladder cancer = settings: rodents; cited from earlier work
[10] = biological target: Terbium-labeled PPARG ligand binding domain (PPARG-LBD) (Macaca mulatta (Rhesus macaque)) (UniProt O18924); assay: TR-FRET corepressor assay, PPARG-LBD and SMRT/NCOR2 peptide; with inverse-agonists T0070907 and SR10221
[11] = biological target: Terbium-labeled PPARG ligand binding domain (PPARG-LBD) (Macaca mulatta (Rhesus macaque)) (UniProt O18924); assay: TR-FRET corepressor assay, PPARG-LBD and SMRT/NCOR2 peptide; with antagonists GW9662 and SR2595
[12] = biological target: Terbium-labeled PPARG ligand binding domain (PPARG-LBD) (Macaca mulatta (Rhesus macaque)) (UniProt O18924); assay: TR-FRET corepressor assay, PPARG-LBD and SMRT/NCOR2 peptide; with agonists rosiglitazone, tesaglitazar and GW9129 (so in the source)

CC(C)(c1ccc(OCC2CO2)cc1)c1ccc(OCC2CO2)cc1 (stereo not drawn) [BADGE, Bisphenol A diglycidyl ether]
effect on unstimulated reporter (PPARG): minimal detectable effect
effect in coactivator assay [1]: minimal effect
binding to PPARG LBD, competition with fluorescent ligand [2]: weak activity

CCCCCOc1cc2c(cc1-c1cc(/C=C/C(=O)O)ccc1O)C(C)(C)CCC2(C)C [UVI3003]
effect in coactivator assay [1]: minimal effect

CCC(=O)NC[C@H](Cc1ccc(OCCc2nc(-c3ccccc3)oc2C)cc1)N/C(C)=C\C(=O)c1ccc(C(F)(F)F)cc1 [GW6471]
effect on unstimulated reporter (PPARG): modest inhibitory effect

Cc1c(C)n(Cc2ccc(-c3ccccc3C(=O)O)cc2)c2ccc(C(=O)N[C@@H](C)c3ccc(C(C)(C)C)cc3)cc12 [SR2595]
effect on cell proliferation compared with DMSO control (UM-UC-9 cells [3]): no significant effects
sensitivity of cell lines [4]: not sensitive
sensitivity of cell lines [5]: not sensitive
hierarchical clustering of gene expression signatures [6]: cluster with vehicle-treated controls

CC1=C2C=C(C(=O)N[C@@H](C)c3ccc(C(C)(C)C)cc3)C=CC2N(Cc2ccc(Cl)c(O[C@@H](C)C(=O)O)c2)C1C (stereo partly drawn) [SR10221]
effect on PPARG-NCOR2 interaction [7]: induce interaction between PPARG and NCOR2
IC50 (5637 cells): 20 to 30 nM
induced signal [8]: less than 2 fold
effect on cell proliferation compared with DMSO control (UM-UC-9 cells [3]): significantly reduced proliferation
IC50 (UM-UC-9 cells [3]; Homo sapiens, UM-UC-9, read-out: calculated IC50, proliferation): 16 nM
sensitivity of cell lines [4]: preferentially sensitive
sensitivity of cell lines [5]: preferentially sensitive
reduction of proliferation relative to control (UM-UC-9 cells [9]): 80%

COP(=O)(OC)OC(c1ccc(Cl)cc1)P(=O)(OC)OC (stereo not drawn) [SR202, Mifobate]
effect on unstimulated reporter (PPARG): minimal detectable effect
effect in coactivator assay [1]: minimal effect
binding to PPARG LBD, competition with fluorescent ligand [2]: weak activity

CCc1ccc(CCOc2ccc(CC3SC(=O)NC3=O)cc2)nc1 (stereo not drawn) [pioglitazone]
carcinogenic effect, bladder cancer (bladder cancer): carcinogenic effect in rodents was also observed

B1: fluorescein-labeled SMRT ID2 corepressor peptide (SMRT/NCOR2) (peptide)
peptide: HASTNMGLEAIIRKALMGKYDQW
modifications: also: fluorescein-labeled, site not given here
fold increase in signal [10]: 3 to 6 fold
fold increase in signal [11]: 1.7 fold
decrease in signal [12]: 50 to 60%
